Assay [1] concerns grammpositive und grammnegative Kokken. Kind of assay: in vitro antibacterial activity against cocci. Format: cell-based. The conditions noted are these: at the lowest tested concentration (0,01 mcg/ml). From the text: (§1) Diese neuen Verbindungen zeichnen sich durch ihre wertvollen pharmakologischen Eigenschaften aus: so besitzen sie gemäss den Resultaten in vitro antibiotische, insbesondere antibakterielle Eigenschaften, wie z.B. einerseits gegen grammpositive und grammnegative Kokken, wie Staphylococcus aureus, Streptococcus pyogenes, Streptococcus pneumoniae, Neisseria meningitis, Neisseria gonorhoae (im getesteten Konzentrationsbereich 0,01 bis 8 mcg/ml), andererseits gegen grammnegative Stäbchenbakterien, wie Enterobacteriaceae, Pseudomonas aeruginosa, Haemophilus influenzae (im getesteten Konzentrationsbereich von 0,01 bis […]).

The subject of assay [2] is grammnegative Stäbchenbakterien. Kind of assay: in vitro antibacterial activity against gram-negative rod bacteria. The class given is cell-based. The conditions noted are these: at the lowest tested concentration (0,01 mg/ml).
From the text: as §1

For “3-Benzoyloxyrifamycin-S [3-Benzoylrifamycin-S]”, the Hemmwirkung result in assay [1] and in assay [2] was “deutliche Hemmwirkung” each time.
As to “3-(2-Methoxyäthoxy)-rifamycin-S [3-(2-Methoxyäthyl)-rifamycin-S]”, the Hemmwirkung entry in assay [1] and in assay [2] was “deutliche Hemmwirkung” throughout.
In the case of `COC1C=COC2(C)Oc3c(C)c(O)c4c(c3C2=O)C(=O)C(Oc2ccccc2)=C(NC(=O)C(C)=CC=CC(C)C(O)C(C)C(O)C(C)C(OC(C)=O)C1C)C4=O` (stereo not shown) [3-Phenoxyrifamycin-S], the Hemmwirkung entry in assay [1] and in assay [2] was “deutliche Hemmwirkung” throughout.
Take `COC1=C2NC(=O)C(C)=CC=CC(C)C(O)C(C)C(O)C(C)C(OC(C)=O)C(C)C(OC)C=COC3(C)Oc4c(C)c(O)c(c(c4C3=O)C1=O)C2=O` (stereo not shown) [3-Methoxyrifamycin-S]: the Hemmwirkung entry in assay [1] and in assay [2] was “deutliche Hemmwirkung” each time.
In the case of `COC1C=COC2(C)Oc3c(C)c(O)c4c(c3C2=O)C(=O)C(OC(C)=O)=C(NC(=O)C(C)=CC=CC(C)C(O)C(C)C(O)C(C)C(OC(C)=O)C1C)C4=O` (stereo not shown) [3-Acetoxyrifamycin-S], the Hemmwirkung entry in assay [1] and in assay [2] was “deutliche Hemmwirkung” each time.

These data come from EP0023885A1, “Method for the introduction of an oxygen-containing functional group into ansamycines, compounds thus obtained, and pharmaceutical compositions containing them” (CIBA-GEIGY AG, priority 1979, dated 1981).
